According to patent US20100255580A1, “Differentiation of Human Embryonic Stem Cells” (LIFESCCAN, INC., priority 2007, published 2010):
Like-named read-outs stand apart in the source and are kept apart here.

Tested on: H9 embryonic stem cells
Type: cell-based, human
Conditions: DE treatment in low serum
Description: Controls for each group included cells plated on […]-coated dishes and cultured in MEF-conditioned medium or cells plated on MEFs and cultured in ES medium. All groups contained three biological replicates and each biological replicate was repeated on two separate gene chips.
Sample preparation, hybridization, and image analysis were performed according to the Affymetrix Human Genome U133 Plus 2.0 Array. Following normalization and a log transformation, data analysis was performed using OmniViz® software (MA) and […] (VizXLabs, WA). Significant differences in gene expression between the samples were evaluated using analysis of variance and an F-test with adjusted P-value (Benjamini and
Hochberg correction) of ≦b 0.05. Only genes with a present call in at least one group were included in the analysis.

Substance: Activin A: a member of the TGFβ superfamily; R&D Systems; Group 2 = Activin A (100 ng/ml)
- mean normalized intensity (log format), gene: DKFZP566K1924 protein (on MATRIGEL): 2.882
- mean normalized intensity (log format), gene: ESTs (r2006) (on MATRIGEL): 1.5857
- mean normalized intensity (log format), gene: ESTs (r2025) (on MATRIGEL): 1.531
- mean normalized intensity (log format), gene: ESTs (r2032) (on MATRIGEL): 0.1336
- mean normalized intensity (log format), gene: ESTs (r2038) (on MATRIGEL): 3.262
- mean normalized intensity (log format), gene: ESTs (r2134) (on MATRIGEL): −1.3795
- mean normalized intensity (log format), gene: ESTs (r2148) (on MATRIGEL): 4.454
- mean normalized intensity (log format), gene: ESTs, Moderately similar to ALU2_HUMAN ALU SUBFAMILY SB SEQUENCE CONTAMINATION WARNING ENTRY (H. sapiens) (on MATRIGEL): 4.241
- mean normalized intensity (log format), gene: H. sapiens mRNA for B-HLH DNA binding protein. (on MATRIGEL): 5.43
- mean normalized intensity (log format), gene: Homo sapiens BCL2-interacting killer (apoptosis-inducing) (BIK), mRNA. (on MATRIGEL): 4.3
- mean normalized intensity (log format), gene: Homo sapiens Charot-Leyden crystal protein (CLC), mRNA. (on MATRIGEL): 3.301
- mean normalized intensity (log format), gene: Homo sapiens HES-related repressor protein 1 HERP1 mRNA, complete cds. (on MATRIGEL): 2.806
- mean normalized intensity (log format), gene: Homo sapiens HSPC156 protein (HSPC156), mRNA. (on MATRIGEL): 0.7862
- mean normalized intensity (log format), gene: Homo sapiens KIAA0469 gene product (KIAA0469), mRNA. (on MATRIGEL): 4.031
- mean normalized intensity (log format), gene: Homo sapiens PNAS-123 mRNA, complete cds (on MATRIGEL): 1.597
- mean normalized intensity (log format), gene: Homo sapiens Wilms tumor 1 (WT1), transcript variant D, mRNA. (on MATRIGEL): 2.405
- mean normalized intensity (log format), gene: Homo sapiens cDNA FLJ11398 fis, clone HEMBA1000637. (on MATRIGEL): 2.5268
- mean normalized intensity (log format), gene: Homo sapiens cDNA: FLJ22547 fis, clone HSI00356 (on MATRIGEL): 4.294
- mean normalized intensity (log format), gene: Homo sapiens cadherin 6, type 2, K-cadherin (fetal kidney) (CDH6), mRNA. (on MATRIGEL): 0.8248
- mean normalized intensity (log format), gene: Homo sapiens chorionic somatomammotropin hormone 2 (CSH2), transcript variant 1, mRNA. (on MATRIGEL): 1.124
- mean normalized intensity (log format), gene: Homo sapiens chorionic somatomammotropin hormone 2 (CSH2), transcript variant 4, mRNA. (on MATRIGEL): 0.8122
- mean normalized intensity (log format), gene: Homo sapiens galanin receptor 1 (GALR1), mRNA. (on MATRIGEL): 2.507
- mean normalized intensity (log format), gene: Homo sapiens growth hormone 2 (GH2), transcript variant 2, mRNA. (on MATRIGEL): 0.9226
- mean normalized intensity (log format), gene: Homo sapiens hypothetical protein FLJ20075 (FLJ20075), mRNA. (on MATRIGEL): −0.3592
- mean normalized intensity (log format), gene: Homo sapiens mRNA for SCCA2b, complete cds. (on MATRIGEL): 3.329
- mean normalized intensity (log format), gene: Homo sapiens mRNA; cDNA DKFZp586P1124 (from clone DKFZp586P1124) (on MATRIGEL): 0.4856
- mean normalized intensity (log format), gene: Homo sapiens methyl-CpG binding protein MBD2 (MBD2) mRNA, complete cds. (on MATRIGEL): 0.4906
- mean normalized intensity (log format), gene: Homo sapiens tachykinin, precursor 1 (TAC1), transcript variant beta, mRNA. (on MATRIGEL): 2.773
- mean normalized intensity (log format), gene: Homo sapiens testis expressed sequence 14 (TEX14), mRNA. (on MATRIGEL): 3.512
- mean normalized intensity (log format), gene: Homo sapiens, Similar to LIM homeobox protein 8, clone IMAGE: 4839343, mRNA. (on MATRIGEL): −0.06288
- mean normalized intensity (log format), gene: Homo sapiens, Similar to cadherin 6, type 2, K-cadherin (fetal kidney), clone MGC: 1470, mRNA, complete cds. (on MATRIGEL): 2.547
- mean normalized intensity (log format), gene: Homo sapiens, Similar to hypothetical protein FLJ10058, clone MGC: 34305 IMAGE: 5167647, mRNA, complete cds. (on MATRIGEL): 1.698
- mean normalized intensity (log format), gene: Homo sapiens, Similar to hypothetical protein FLJ32001, clone MGC: 39559 IMAGE: 4828136, mRNA, complete cds. (on MATRIGEL): 0.5207
- mean normalized intensity (log format), gene: Homo sapiens, clone IMAGE: 4067166, mRNA (on MATRIGEL): 0.1959
- mean normalized intensity (log format), gene: Homo sapiens, clone IMAGE: 4828836, mRNA. (on MATRIGEL): 0.9729
- mean normalized intensity (log format), gene: Homo sapiens, serine (or cysteine) proteinase inhibitor, clade B (ovalbumin), member 3, clone MGC: 12244, mRNA, complete cds. (on MATRIGEL): 1.969
- mean normalized intensity (log format), gene: Human mRNA upregulated during camptothecin-induced apoptosis of U937 cells. (on MATRIGEL): 0.4945
- mean normalized intensity (log format), gene: Human platelet-derived growth factor alpha-receptor (PDGFRA) mRNA, exons 13-16 (on MATRIGEL): 2.445
- mean normalized intensity (log format), gene: KIAA1151 protein (on MATRIGEL): 0.6425
- mean normalized intensity (log format), gene: caldesmon 1 (on MATRIGEL): 7.092
- mean normalized intensity (log format), gene: nuclear receptor subfamily 1, group I, member 3 (on MATRIGEL): 1.779
- mean normalized intensity (log format), gene: paternally expressed 3 (r2033) (on MATRIGEL): 2.876
- mean normalized intensity (log format), gene: paternally expressed 3 (r2093) (on MATRIGEL): 2.874
- mean normalized intensity (log format), gene: DKFZP566K1924 protein (on MEFS): 1.391
- mean normalized intensity (log format), gene: ESTs (r2006) (on MEFS): −1.3
- mean normalized intensity (log format), gene: ESTs (r2025) (on MEFS): 1.373
- mean normalized intensity (log format), gene: ESTs (r2032) (on MEFS): −1.566
- mean normalized intensity (log format), gene: ESTs (r2038) (on MEFS): 1.5682
- mean normalized intensity (log format), gene: ESTs (r2134) (on MEFS): −0.9461
- mean normalized intensity (log format), gene: ESTs (r2148) (on MEFS): 5.334
- mean normalized intensity (log format), gene: ESTs, Moderately similar to ALU2_HUMAN ALU SUBFAMILY SB SEQUENCE CONTAMINATION WARNING ENTRY (H. sapiens) (on MEFS): 3.874
- mean normalized intensity (log format), gene: H. sapiens mRNA for B-HLH DNA binding protein. (on MEFS): 3.451
- mean normalized intensity (log format), gene: Homo sapiens BCL2-interacting killer (apoptosis-inducing) (BIK), mRNA. (on MEFS): 3.562
- mean normalized intensity (log format), gene: Homo sapiens Charot-Leyden crystal protein (CLC), mRNA. (on MEFS): 2.1096
- mean normalized intensity (log format), gene: Homo sapiens HES-related repressor protein 1 HERP1 mRNA, complete cds. (on MEFS): 2.406
- mean normalized intensity (log format), gene: Homo sapiens HSPC156 protein (HSPC156), mRNA. (on MEFS): 1.296
- mean normalized intensity (log format), gene: Homo sapiens KIAA0469 gene product (KIAA0469), mRNA. (on MEFS): 2.565
- mean normalized intensity (log format), gene: Homo sapiens PNAS-123 mRNA, complete cds (on MEFS): 1.847
- mean normalized intensity (log format), gene: Homo sapiens Wilms tumor 1 (WT1), transcript variant D, mRNA. (on MEFS): −2.435
- mean normalized intensity (log format), gene: Homo sapiens cDNA FLJ11398 fis, clone HEMBA1000637. (on MEFS): 1.849
- mean normalized intensity (log format), gene: Homo sapiens cDNA: FLJ22547 fis, clone HSI00356 (on MEFS): 2.095
- mean normalized intensity (log format), gene: Homo sapiens cadherin 6, type 2, K-cadherin (fetal kidney) (CDH6), mRNA. (on MEFS): −0.8763
- mean normalized intensity (log format), gene: Homo sapiens chorionic somatomammotropin hormone 2 (CSH2), transcript variant 1, mRNA. (on MEFS): 2.616
- mean normalized intensity (log format), gene: Homo sapiens chorionic somatomammotropin hormone 2 (CSH2), transcript variant 4, mRNA. (on MEFS): 2.218
- mean normalized intensity (log format), gene: Homo sapiens galanin receptor 1 (GALR1), mRNA. (on MEFS): −0.338
- mean normalized intensity (log format), gene: Homo sapiens growth hormone 2 (GH2), transcript variant 2, mRNA. (on MEFS): 1.4679
- mean normalized intensity (log format), gene: Homo sapiens hypothetical protein FLJ20075 (FLJ20075), mRNA. (on MEFS): −0.06528
- mean normalized intensity (log format), gene: Homo sapiens mRNA for SCCA2b, complete cds. (on MEFS): 0.568
- mean normalized intensity (log format), gene: Homo sapiens mRNA; cDNA DKFZp586P1124 (from clone DKFZp586P1124) (on MEFS): −3.094
